Reference: article PMC9848300, “Discovery of novel enasidenib analogues targeting inhibition of mutant isocitrate dehydrogenase 2 as antileukaemic agents” (Journal of Enzyme Inhibition and Medicinal Chemistry, 2023)
Read-outs that look alike come from different tables or passages of the source.

How the values were obtained:
CCRF-CEM = experiment: NCI 60 antitumor screening (single dose / five doses); format: cell-based; settings: Homo sapiens, read-out: Growth inhibition percentage (GI %)
K-562 = experiment: as above; format: cell-based; settings: Homo sapiens
MOLT-4 = experiment: as above; format: cell-based; settings: Homo sapiens
SR = experiment: as above; format: cell-based; settings: Homo sapiens, read-out: Growth inhibition percentage (GI %)
EKVX = experiment: as above; format: cell-based; settings: Homo sapiens, read-out: Growth inhibition percentage (GI %)
HOP-92 = experiment: as above; format: cell-based; settings: Homo sapiens
NCI-H460 = experiment: NCI 60 antitumor screening (single dose); format: cell-based; settings: Homo sapiens; NCI-H460 (non-small cell lung cancer), single dose 10 μM; read-out: Growth inhibition percentage (GI %)
Method in brief: (§1)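 NCI-60 protocol: single 10 μM dose against each cell line, run in triplicate. Percent growth (G%) of treated cells measured and growth inhibition reported as GI% = 100 − G%; panel mean also given.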

OVCAR-3 = experiment: NCI 60 antitumor screening (single dose); format: cell-based; settings: Homo sapiens
Method in brief: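 Values are GI% (100 − G%) from the NCI 60-line single-dose screen, compound at 10 μM.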

SF-268 = experiment: NCI 60 antitumor screening (single dose); format: cell-based; settings: Homo sapiens; SF-268 (CNS cancer), single dose 10 μM; read-out: Growth inhibition percentage (GI %)
Method in brief: as §1

COLO 205 = experiment: NCI 60 antitumor screening (single dose / five doses); format: cell-based; settings: Homo sapiens
HT29 = experiment: as above; format: cell-based, human; settings: Homo sapiens
SW-620 = experiment: as above; format: cell-based, human; settings: Homo sapiens
SF-539 = experiment: as above; format: cell-based; settings: Homo sapiens
MALME-3M = experiment: as above; format: cell-based; settings: Homo sapiens, read-out: Growth inhibition percentage (GI %)
MDA-MB-435 = experiment: as above; format: cell-based; settings: Homo sapiens
SK-MEL-2 = experiment: as above; format: cell-based; settings: Homo sapiens
SK-MEL-28 = experiment: as above; format: cell-based; settings: Homo sapiens
SK-MEL-5 = experiment: as above; format: cell-based; settings: Homo sapiens
UACC-257 = experiment: as above; format: cell-based; settings: Homo sapiens
UACC-62 = experiment: as above; format: cell-based; settings: Homo sapiens
IGROV1 = experiment: as above; format: cell-based; settings: Homo sapiens
786-0 = experiment: as above; format: cell-based; settings: Homo sapiens
A498 = experiment: as above; format: cell-based; settings: Homo sapiens
ACHN = experiment: as above; format: cell-based; settings: Homo sapiens, read-out: Growth inhibition percentage (GI %)
SN 12C = experiment: as above; format: cell-based; settings: Homo sapiens, SN12C, read-out: Growth inhibition percentage (GI %)
UO-31 = experiment: as above; format: cell-based; settings: Homo sapiens
MDA-MB-231/ATCC = experiment: as above; format: cell-based; settings: Homo sapiens
MDA-MB-468 = experiment: as above; format: cell-based; settings: Homo sapiens
[1] = CCRF-CEM (leukaemia), single dose 10 μM
[2] = K562, K-562 (leukaemia), single dose 10 μM, read-out: Growth inhibition percentage (GI %)
[3] = MOLT-4 (leukaemia), single dose 10 μM, read-out: Growth inhibition percentage (GI %)
[4] = SR (leukaemia), single dose 10 μM
[5] = EKVX (non-small cell lung cancer), single dose 10 μM
[6] = HOP-92 (non-small cell lung cancer), single dose 10 μM, read-out: Growth inhibition percentage (GI %)
[7] = OVCAR-3 (ovarian cancer), single dose 10 μM, read-out: Growth inhibition percentage (GI %)
[8] = COLO 205 (colon cancer), single dose 10 μM, read-out: Growth inhibition percentage (GI %)
[9] = HT-29, HT29 (colon cancer), single dose 10 μM, read-out: Growth inhibition percentage (GI %)
[10] = SW-620 (colon cancer), single dose 10 μM, read-out: Growth inhibition percentage (GI %)
[11] = SF-539 (CNS cancer), single dose 10 μM, read-out: Growth inhibition percentage (GI %)
[12] = MALME-3M (melanoma), single dose 10 μM
[13] = MDA-MB-435 (melanoma), single dose 10 μM, read-out: Growth inhibition percentage (GI %)
[14] = SK-MEL-2 (melanoma), single dose 10 μM, read-out: Growth inhibition percentage (GI %)
[15] = SK-MEL-28 (melanoma), single dose 10 μM, read-out: Growth inhibition percentage (GI %)
[16] = SK-MEL-5 (melanoma), single dose 10 μM, read-out: Growth inhibition percentage (GI %)
[17] = UACC-257 (melanoma), single dose 10 μM, read-out: Growth inhibition percentage (GI %)
[18] = UACC-62 (melanoma), single dose 10 μM, read-out: Growth inhibition percentage (GI %)
[19] = IGROV-1, IGROV1 (ovarian cancer), single dose 10 μM, read-out: Growth inhibition percentage (GI %)
[20] = 786-0, 786-0 (renal cancer), single dose 10 μM, read-out: Growth inhibition percentage (GI %)
[21] = A498 (renal cancer), single dose 10 μM, read-out: Growth inhibition percentage (GI %)
[22] = ACHN (renal cancer), single dose 10 μM
[23] = SN 12C (renal cancer), single dose 10 μM
[24] = UO-31 (renal cancer), single dose 10 μM, read-out: Growth inhibition percentage (GI %)
[25] = MDA-MB-231/ATCC (breast cancer), single dose 10 μM, read-out: Growth inhibition percentage (GI %)
[26] = MDA-MB-468 (breast cancer), single dose 10 μM, read-out: Growth inhibition percentage (GI %)

Fc1cccc(/C=N/Nc2nc(N/N=C/c3cccc(F)c3)nc(N3CCOCC3)n2)c1 [compound 6e, 2,4-Bis[(E)-2-[(3-Fluorophenyl)methylidene]hydrazin-1-yl]-6-(morpholin-4-yl)-1,3,5-triazine]
inhibition at 10 µM (CCRF-CEM; [1]): 32.8%
inhibition at 10 µM (K-562; [2]): 35.3%
inhibition at 10 µM (MOLT-4; [3]): 33.9%
inhibition at 10 µM (SR; [4]): 60.2%
inhibition at 10 µM (EKVX; [5]): 10.9%
inhibition at 10 µM (HOP-92; [6]): 8.68%
inhibition at 10 µM (NCI-H460): 5.44%
inhibition at 10 µM (OVCAR-3; [7]): 19.3%
inhibition at 10 µM (SF-268): 4.91%
inhibition at 10 µM (COLO 205; [8]): 37.4%
inhibition at 10 µM (HT29; [9]): 53.5%
inhibition at 10 µM (SW-620; [10]): 34%
inhibition at 10 µM (SF-539; [11]): 12.6%
inhibition at 10 µM (MALME-3M; [12]): -44%
inhibition at 10 µM (MDA-MB-435; [13]): 1.89%
inhibition at 10 µM (SK-MEL-2; [14]): 2.51%
inhibition at 10 µM (SK-MEL-28; [15]): 10.1%
inhibition at 10 µM (SK-MEL-5; [16]): 27.9%
inhibition at 10 µM (UACC-257; [17]): 6.59%
inhibition at 10 µM (UACC-62; [18]): -5.24%
inhibition at 10 µM (IGROV1; [19]): 18.4%
inhibition at 10 µM (786-0; [20]): 54%
inhibition at 10 µM (A498; [21]): 52%
inhibition at 10 µM (ACHN; [22]): 20.9%
inhibition at 10 µM (SN 12C; [23]): 8.98%
inhibition at 10 µM (UO-31; [24]): 30.3%
inhibition at 10 µM (MDA-MB-231/ATCC; [25]): 3.49%
inhibition at 10 µM (MDA-MB-468; [26]): 11.5%

O=[N+]([O-])c1cccc(/C=N/Nc2nc(N/N=C/c3cccc([N+](=O)[O-])c3)nc(N3CCOCC3)n2)c1 [compound 6f, 2-(Morpholin-4-yl)-4,6-bis[(E)-2-[(3-nitrophenyl)methylidene]hydrazin-1-yl]-1,3,5-triazine]
inhibition at 10 µM (CCRF-CEM; CCRF-CEM): 58.4%
inhibition at 10 µM (K-562; K562, read-out: Growth inhibition percentage (GI %)): 63.3%
inhibition at 10 µM (MOLT-4; MOLT-4, read-out: Growth inhibition percentage (GI %)): 52.7%
inhibition at 10 µM (SR; SR): 66%
inhibition at 10 µM (EKVX; EKVX): 11%
inhibition at 10 µM (HOP-92; HOP-92, read-out: Growth inhibition percentage (GI %)): 14.2%
inhibition at 10 µM (NCI-H460): 17%
inhibition at 10 µM (OVCAR-3; OVCAR-3, read-out: Growth inhibition percentage (GI %)): 19%
inhibition at 10 µM (SF-268): 6.36%
inhibition at 10 µM (COLO 205; COLO 205, read-out: Growth inhibition percentage (GI %)): 44.2%
inhibition at 10 µM (HT29; HT-29, read-out: Growth inhibition percentage (GI %)): 42.2%
inhibition at 10 µM (SW-620; SW-620, read-out: Growth inhibition percentage (GI %)): 18.4%
inhibition at 10 µM (SF-539; SF-539, read-out: Growth inhibition percentage (GI %)): 6.2%
inhibition at 10 µM (MALME-3M; Malme-3M): 6.12%
inhibition at 10 µM (MDA-MB-435; MDA-MB-435, read-out: Growth inhibition percentage (GI %)): 9.84%
inhibition at 10 µM (SK-MEL-2; SK-MEL-2, read-out: Growth inhibition percentage (GI %)): 4.93%
inhibition at 10 µM (SK-MEL-28; SK-MEL-28, read-out: Growth inhibition percentage (GI %)): 17.9%
inhibition at 10 µM (SK-MEL-5; SK-MEL-5, read-out: Growth inhibition percentage (GI %)): 36.9%
inhibition at 10 µM (UACC-257; UACC-257, read-out: Growth inhibition percentage (GI %)): 9.17%
inhibition at 10 µM (UACC-62; UACC-62, read-out: Growth inhibition percentage (GI %)): 21.1%
inhibition at 10 µM (IGROV1; IGROV-1, read-out: Growth inhibition percentage (GI %)): 42.6%
inhibition at 10 µM (786-0; 786-0, read-out: Growth inhibition percentage (GI %)): 30.4%
inhibition at 10 µM (A498; A498, read-out: Growth inhibition percentage (GI %)): 13.1%
inhibition at 10 µM (ACHN; ACHN): 30.2%
inhibition at 10 µM (SN 12C): 24.4%
inhibition at 10 µM (UO-31; UO-31, read-out: Growth inhibition percentage (GI %)): 50.7%
inhibition at 10 µM (MDA-MB-231/ATCC; MDA-MB-231, read-out: Growth inhibition percentage (GI %)): 2.27%
inhibition at 10 µM (MDA-MB-468; MDA-MB-468, read-out: Growth inhibition percentage (GI %)): 1.3%

Clc1cccc(/C=N/Nc2nc(N/N=C/c3cccc(Cl)c3Cl)nc(N3CCOCC3)n2)c1Cl [compound 6h, 2,4-Bis[(E)-2-[(2,3-Dichlorophenyl)methylidene]hydrazin-1-yl]-6-(morpholin-4-yl)-1,3,5-triazine]
inhibition at 10 µM (CCRF-CEM; [1]): 16.5%
inhibition at 10 µM (K-562; [2]): 38.6%
inhibition at 10 µM (MOLT-4; [3]): 16.1%
inhibition at 10 µM (SR; [4]): 51.9%
inhibition at 10 µM (EKVX; [5]): 24.4%
inhibition at 10 µM (HOP-92; [6]): -5.67%
inhibition at 10 µM (NCI-H460): -0.07%
inhibition at 10 µM (OVCAR-3; [7]): -2.72%
inhibition at 10 µM (SF-268): 13%
inhibition at 10 µM (COLO 205; [8]): 7.98%
inhibition at 10 µM (HT29; [9]): 12.9%
inhibition at 10 µM (SW-620; [10]): -6.25%
inhibition at 10 µM (SF-539; [11]): 44.2%
inhibition at 10 µM (MALME-3M; [12]): 2.72%
inhibition at 10 µM (MDA-MB-435; [13]): -6.86%
inhibition at 10 µM (SK-MEL-2; [14]): 13.8%
inhibition at 10 µM (SK-MEL-28; [15]): 2.23%
inhibition at 10 µM (SK-MEL-5; [16]): 15.5%
inhibition at 10 µM (UACC-257; [17]): -9.57%
inhibition at 10 µM (UACC-62; [18]): 11.3%
inhibition at 10 µM (IGROV1; [19]): 11.2%
inhibition at 10 µM (786-0; [20]): 1.86%
inhibition at 10 µM (A498; [21]): -10.5%
inhibition at 10 µM (ACHN; [22]): -7.98%
inhibition at 10 µM (SN 12C; [23]): 20.2%
inhibition at 10 µM (UO-31; [24]): 16.1%
inhibition at 10 µM (MDA-MB-231/ATCC; [25]): 13.8%
inhibition at 10 µM (MDA-MB-468; [26]): 32.8%
